From article PMC6155437 (Molecules : A Journal of Synthetic Chemistry and Natural …, 2017)

Experiments:
Format in all cases: in vitro ADME
[1] = target: T1, CYP2C8 (Homo sapiens, UniProt P10632); assay: CYP2C8 amodiaquine N-deethylase inhibition and mechanism-based inactivation in human liver microsomes; conditions: for IC50: Amodiaquine N-deethylase
T1 construct: tissue Corning Life Sciences; host or cells: pooled human liver microsomes (150 donors)
T1 sequence (P10632 1-490): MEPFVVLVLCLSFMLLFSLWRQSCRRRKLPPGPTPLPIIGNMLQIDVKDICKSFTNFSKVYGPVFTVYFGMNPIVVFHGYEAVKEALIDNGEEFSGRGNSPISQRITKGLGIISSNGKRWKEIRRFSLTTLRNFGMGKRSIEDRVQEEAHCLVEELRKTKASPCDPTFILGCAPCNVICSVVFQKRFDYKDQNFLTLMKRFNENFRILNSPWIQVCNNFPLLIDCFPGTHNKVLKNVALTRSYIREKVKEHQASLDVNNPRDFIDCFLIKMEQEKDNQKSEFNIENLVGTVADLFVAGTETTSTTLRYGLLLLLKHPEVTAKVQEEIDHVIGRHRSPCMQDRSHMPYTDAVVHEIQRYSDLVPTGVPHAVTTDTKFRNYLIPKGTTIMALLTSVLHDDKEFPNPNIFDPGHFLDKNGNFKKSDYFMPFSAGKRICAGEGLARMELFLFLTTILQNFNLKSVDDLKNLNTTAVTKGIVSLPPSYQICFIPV
Protocol: (§1) After a 3-min pre-incubation at 37 °C, the reactions were initiated by addition of NADPH and incubation proceeded for 15 min at 37 °C in a shaking water bath. […] The incubation mixtures were centrifuged (13,000× g, 4 min, 4 °C). All assays were performed in triplicate and mean values were used in calculations.
(§2) Each reaction was initiated by adding the seven-CYP probe substrate cocktail.
The second reaction was terminated after incubation for 10 min by adding 100-µL amounts of ice-cold methanol containing d9-1′-hydroxybufuralol. The incubation mixtures were centrifuged (13,000× g, 4 min, 4 °C), and then 50 µL of each supernatant was diluted with 50 µL of water. Aliquots (5 µL) of the diluted supernatants were analyzed by LC-MS/MS.
The metabolites formed from CYP substrates were quantified simultaneously by a LC-MS/MS method described previously. The ESI source settings in positive-ion mode for metabolite ionization were: capillary voltage, 4200 V; vaporizer temperature, 350 °C; capillary temperature, 330 °C; sheath gas pressure, 35 psi; and auxiliary gas pressure, 15 psi. Quantification was performed by selected reaction monitoring (SRM) of the [M + H]^+ ion and the related product ion for each metabolite: acetaminophen, 152.1 > 110.3; N-desethylamodiaquine, 328.1 > 283.0; 7-hydroxycoumarin, 163.0 > 107.2; 4-hydroxybupropion, 256.1 > 238.0; 4′-hydroxydiclofenac, 312.0 > 231.1; 4′-hydroxy-mephenytoin; 235.1 > 150.1; 1′-hydroxybufuralol, 278.1 > 186.1; 1′-hydroxymidazolam, 341.9 > 324.0; ^13C2,^15N-acetaminophen 155.1 > 111.2; and d9-1′-hydroxybufuralol, 287.2 > 187.0. Analytical data were processed using Xcalibur software (version 2.1, Thermo Scientific).
(§3) The apparent kinetic parameters for inhibitory potential (Ki and kinact values) and inhibition mode were estimated from the fitted curves using the Enzyme Kinetics program (ver. 1.1; Systat Software Inc., San Jose, CA, USA).

[2] = target: T2, CYP2D6 (Homo sapiens, UniProt P10635); assay: CYP2D6 bufuralol 1′-hydroxylase inhibition in human liver microsomes; conditions: at 50 µM
T2 construct: pooled human liver microsomes (0.2 mg/mL); tissue Corning Life Sciences; host or cells: pooled human liver microsomes (150 donors)
Protocol: as §1, §2
The metabolites formed from CYP substrates were quantified simultaneously by a LC-MS/MS method described previously. The ESI source settings in positive-ion mode for metabolite ionization were: capillary voltage, 4200 V; vaporizer temperature, 350 °C; capillary temperature, 330 °C; sheath gas pressure, 35 psi; and auxiliary gas pressure, 15 psi. […] Analytical data were processed using Xcalibur software (version 2.1, Thermo Scientific).
as §3

[3] = target: T3, UGT2B7 (Homo sapiens, UniProt P16662); assay: UGT2B7 naloxone 3-β-D-glucuronidation inhibition in human liver microsomes
T3 construct: tissue Corning Life Sciences; host or cells: pooled human liver microsomes (150 donors)
T3 sequence (P16662 24-529): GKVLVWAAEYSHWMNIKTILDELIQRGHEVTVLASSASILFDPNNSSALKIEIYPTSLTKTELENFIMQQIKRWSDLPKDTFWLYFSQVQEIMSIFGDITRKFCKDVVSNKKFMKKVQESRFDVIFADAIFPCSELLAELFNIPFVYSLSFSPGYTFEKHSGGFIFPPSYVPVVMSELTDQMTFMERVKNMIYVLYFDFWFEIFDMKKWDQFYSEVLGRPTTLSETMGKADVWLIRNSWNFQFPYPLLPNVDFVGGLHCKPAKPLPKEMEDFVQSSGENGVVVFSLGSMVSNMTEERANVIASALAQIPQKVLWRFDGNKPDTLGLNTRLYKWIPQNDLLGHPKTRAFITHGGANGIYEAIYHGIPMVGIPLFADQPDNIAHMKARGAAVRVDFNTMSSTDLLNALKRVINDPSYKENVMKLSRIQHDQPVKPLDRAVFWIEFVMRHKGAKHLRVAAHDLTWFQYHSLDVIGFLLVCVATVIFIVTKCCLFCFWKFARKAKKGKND
Protocol: After 3 min of pre-incubation at 37 °C, the reactions were initiated by addition of UDPGA; incubation continued for 60 min at 37 °C in a shaking water bath. The reaction was stopped by placing the tubes on ice and adding 50 µL ice-cold acetonitrile containing internal standards (propofol glucuronide for chenodeoxycholic acid 24-acyl-β-glucuronide and mycophenolic acid glucuronide, and meloxicam for SN-38 glucuronide, trifluoperazine glucuronide, N-acetylserotonin β-D-glucuronide, and naloxone 3-β-D-glucuronide). The incubation mixtures were centrifuged (13,000× g, 4 min, 4 °C). All assays were performed in triplicate and average values were used in calculations.
The reactions were initiated by addition of UDPGA at 37 °C and stopped after 60 min by placing the incubation tubes on ice and adding 100 μL of ice-cold methanol containing propofol glucuronide (internal standard for UGT1A3) or meloxicam (internal standard for UGT2B7). The incubation mixtures were centrifuged (13,000× g, 4 min, 4 °C), and then, 50 μL of the supernatant was diluted with 50 μL of water. Aliquots (5 μL) of the diluted supernatants were analyzed by LC-MS/MS.
The metabolites formed from the six UGT cocktail substrates were measured simultaneously using the LC-MS/MS method. The ESI source settings in both positive- and negative-ion modes for metabolite ionization were: capillary voltage, 4200 V; vaporizer temperature, 350 °C; capillary temperature, 330 °C; sheath gas pressure, 35 psi; and auxiliary gas pressure, 15 psi. […] Data were processed using Xcalibur software.
as §3

T2 sequence (P10635 whole entry): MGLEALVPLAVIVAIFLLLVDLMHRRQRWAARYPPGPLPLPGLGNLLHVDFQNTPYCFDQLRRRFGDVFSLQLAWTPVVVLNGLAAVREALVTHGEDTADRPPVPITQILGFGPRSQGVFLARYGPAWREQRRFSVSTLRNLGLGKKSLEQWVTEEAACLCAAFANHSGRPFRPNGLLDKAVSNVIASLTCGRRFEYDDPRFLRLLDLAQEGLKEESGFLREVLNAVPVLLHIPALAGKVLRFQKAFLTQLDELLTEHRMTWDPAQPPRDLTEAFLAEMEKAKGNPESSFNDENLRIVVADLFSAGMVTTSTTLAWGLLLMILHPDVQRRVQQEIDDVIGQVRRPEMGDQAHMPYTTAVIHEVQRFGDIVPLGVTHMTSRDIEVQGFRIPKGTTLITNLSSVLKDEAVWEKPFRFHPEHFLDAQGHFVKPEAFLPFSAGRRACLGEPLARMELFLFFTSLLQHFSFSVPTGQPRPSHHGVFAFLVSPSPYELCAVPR

O=C(c1cccc2ccccc12)c1cn(CCCCCF)c2ccccc12 [AM-2201, 1-(5-fluoropentyl-1H-indol-3-yl)-(naphthalene-1-yl)methanone]
Ki [1]: 2.1 µM
Inhibition Mode ([1]; CYP2C8 amodiaquine N-deethylation): mechanism-based inhibitor
IC50 ([1]; IC50 (μM) No Preincubation, CYP2C8, human liver microsomes, 2.5 μM amodiaquine): 53.8 µM
IC50 ([1]; IC50 (μM) With Preincubation, CYP2C8, 30 min preincubation with NADPH): 6.9 µM
inhibition of CYP2D6-mediated bufuralol 1′-hydroxylation [2]: negligibly inhibited
Ki [3]: 10 µM
IC50 ([3]; IC50, UGT2B7-catalyzed naloxone 3-glucuronidation, abstract): 10 µM
IC50 ([3]; IC50, UGT2B7 naloxone 3-β-D-glucuronidation, 1 μM naloxone, human liver microsomes): 14.5 µM
Inhibition Mode ([3]; UGT2B7 naloxone 3-β-D-glucuronidation): mixed inhibition
